Reference: publication PMC9182086, “Identification of New Non-BBB Permeable Tryptophan Hydroxylase Inhibitors for Treating Obesity and Fatty Liver Disease” (Molecules, 2022)

Experiments:
[1] = Liver microsomal stability (rat); type: in vitro ADME
Procedure: (§1) For the liver microsomal activity, test compounds were incubated with rat and mouse’s liver microsomes, respectively, at a final concentration of 1 µM, in the presence of an NADPH regeneration system in 0.1 M potassium phosphate buffer (pH 7.4) for […] at 37 °C in shaking incubator. The microsomal reaction was terminated by adding four volumes of ice-cold acetonitrile and then centrifuged at 4000 rpm for 20 min. The supernatant was collected and analyzed by a LC-MS/MS system. The percentage of the parent compound remaining was calculated by comparing peak areas.

[2] = Liver microsomal stability (human); type: in vitro ADME; conditions: after 30 min incubation, 1 µM
Procedure: as §1

CYP2D6 = molecular target: T1, CYP2D6 (Homo sapiens, UniProt P10635); assay: CYP inhibition assay (P450-Glo) CYP2D6; type: in vitro ADME; conditions: P450-Glo CYP2D6 Screening System (CYP enzyme), read-out: CYP inhibition 2D6
T1 construct: purchased Promega Corp. V9890
Description: (§2) Five major screening systems: P450-Glo CYP1A2 Screening System (Catalog# V9770), P450-Glo CYP2C9 Screening System (Catalog# V9790), P450-Glo CYP2C19 (Catalog# V9880), P450-Glo CYP 2D6 (Catalog# V9890), and P450-Glo CYP3A4 (Catalog# V9920) were attained from Promega Corp. (Madison, WI). α-naphthoflavone, sulfaphenazole, amitriptyline, quinidine, and ketoconazole were identified as positive control inhibitors for CYP1A2, CYP2C9, CYP2C19, CYP2D6, and CYP3A4, respectively. The CYP enzyme and substrate were combined in a potassium phosphate (KPO4) buffer and the reaction is initiated by adding an NADPH regenerating system. The volume of the mixture (12.5 μL in a 96-well plate) was combined with an equal volume of test compound solution and positive control inhibitor (12.5 μL added to make the volume 25 μL). The reaction of the NADPH regeneration system was initiated by adding a 2× concentration of NADPH solution. Then an equal volume of luciferin detection reagent was added. The plates were incubated at room temperature for 20 min and the luminescence signal was measured by a microplate reader device.

CYP3A4 = molecular target: T2, CYP3A4 (Homo sapiens, UniProt P08684); assay: CYP inhibition assay (P450-Glo) CYP3A4; type: in vitro ADME; conditions: P450-Glo CYP3A4 Screening System (CYP enzyme), read-out: CYP inhibition 3A4
T2 construct: purchased Promega Corp. V9920
Description: as §2

[3] = Pharmacokinetic study in rats (iv and oral); type: in vivo, male SD rats; conditions: SD, rat, plasma, 5 mg/kg
Procedure: The pharmacokinetic study of 18i was performed using eight-week-old male SD rats (Orient Bio Inc., Seongnam, Korea). 18i and its prodrug 21 (5 mg/kg, 2 mL/kg) were administered via intravenous and oral routes. Blood samples were collected at 0.033, 0.16, 0.5, 1, 2, 4, 6, 8, and 24 h for intravenous injection at 0.15, 0.5, 1, 2, 4, 6, 8, and 24 h for oral dosing after drug administration, and then immediately centrifuged at 10,000× g for 3 min. The plasma concentrations of 18i were determined by LC-MS/MS. The plasma concentration-time profiles and pharmacokientic parameters were analyzed by a non-compartmental method using the nonlinear least-squares regression program WinNonlin 5.3 (Pharsight, Mountain View, CA, USA).
The LC-MS/MS analysis was performed on an Agilent 1200 series (Agilent Technologies, Santa Clara, CA, USA) with an API 4000 linear ion trap triple quadruple mass spectrometer (AB Sciex, CA, USA). The chromatographic separation of the drug was carried out using a kinetex column (100 × 2.1 mm, 3 μm, Phenomenex, CA USA) with a SecurityGuard C18 guard column (4 mm × 2.0 mm i.d., Phenomenex). The flow rate was 300 µL/min with a mobile phase consisting of 0.1% formic acid in water (eluent A) and 0.1% formic acid in acetonitrile (eluent B) by linear gradient condition as follows: starting with 0 to 0.3 min, B: 5%; 0.3 to 2.5 min, B: 5 → 95%; 2.5 to 2.9 min, B: 95%; 2.9 to 3.0 min, B: 95 → 5%, and then re-equilibrated to initial conditions until 3 min. The total run time was 6 min and the injection volume of 5 μL.

3T3-L1 cells = assay: In vitro efficacy test: lipogenic/adipogenic gene expression during 3T3-L1 adipocyte differentiation; type: cell-based, mouse; conditions: 10 μM or 50 μM, vs vehicle
Procedure: 3T3-L1 cells (American Type Culture Collection, Manassas, VA, USA) were cultured in DMEM supplemented with 10% FCS and […] P/S in a humidified chamber under 5% atmospheric CO2 at 37 °C. Two days after reaching confluence, cells were further cultured in adipocyte differentiation medium (DMEM/10% FBS, P/S, 0.5 mM IBMX, 1 μg mL^−1 insulin, and 1 μM dexamethasone) (day 0). After 2 days, the medium was changed to adipocyte maintenance medium (DMEM/10% FBS, 1 μg mL^−1 insulin, P/S) (day 2), and the media was changed every 2 days from day 4 to 8. Cells were treated with compound 6 at 10 or 50 μM concentrations throughout adipocyte differentiation (day 0 thru day 8). On day 8, differentiated 3T3-L1 […] were harvested for analysis of gene expression.
Total RNA was extracted from 3T3-L1 cells using Trizol reagent (Invitrogen, Carlsbad, CA, USA), purified using a RNeasy Lipid Tissue Mini kit (Qiagen, Hilden, Germany), and an aliquot (2 µg) of total RNA was reversed transcribed using the RevertAidTM First Strand cDNA Synthesis Kit (Thermo Fisher Scientific, Waltham, MA, USA) according to the manufacturer’s instructions. Real-time PCR was carried out using SYBR Green (Power SYBR Green PCR Master Mix, Thermo Fisher Scientific) with a ViiA™ 7 Real-Time PCR system (Applied Biosystems, Waltham, MA, USA). […]

T1 sequence (P10635 whole entry): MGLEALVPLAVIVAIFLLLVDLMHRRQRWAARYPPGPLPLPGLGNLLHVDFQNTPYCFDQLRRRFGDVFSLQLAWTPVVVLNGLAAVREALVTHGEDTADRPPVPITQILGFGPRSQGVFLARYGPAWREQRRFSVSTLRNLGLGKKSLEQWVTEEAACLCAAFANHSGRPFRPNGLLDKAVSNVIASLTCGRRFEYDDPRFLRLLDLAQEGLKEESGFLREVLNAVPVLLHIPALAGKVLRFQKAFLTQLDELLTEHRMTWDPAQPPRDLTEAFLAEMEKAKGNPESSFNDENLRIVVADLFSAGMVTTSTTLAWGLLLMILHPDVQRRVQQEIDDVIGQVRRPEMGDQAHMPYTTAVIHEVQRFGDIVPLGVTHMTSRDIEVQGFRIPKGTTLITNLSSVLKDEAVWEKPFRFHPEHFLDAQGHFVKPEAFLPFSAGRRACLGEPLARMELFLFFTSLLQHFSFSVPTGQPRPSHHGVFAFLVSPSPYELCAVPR
T2 sequence (P08684 whole entry): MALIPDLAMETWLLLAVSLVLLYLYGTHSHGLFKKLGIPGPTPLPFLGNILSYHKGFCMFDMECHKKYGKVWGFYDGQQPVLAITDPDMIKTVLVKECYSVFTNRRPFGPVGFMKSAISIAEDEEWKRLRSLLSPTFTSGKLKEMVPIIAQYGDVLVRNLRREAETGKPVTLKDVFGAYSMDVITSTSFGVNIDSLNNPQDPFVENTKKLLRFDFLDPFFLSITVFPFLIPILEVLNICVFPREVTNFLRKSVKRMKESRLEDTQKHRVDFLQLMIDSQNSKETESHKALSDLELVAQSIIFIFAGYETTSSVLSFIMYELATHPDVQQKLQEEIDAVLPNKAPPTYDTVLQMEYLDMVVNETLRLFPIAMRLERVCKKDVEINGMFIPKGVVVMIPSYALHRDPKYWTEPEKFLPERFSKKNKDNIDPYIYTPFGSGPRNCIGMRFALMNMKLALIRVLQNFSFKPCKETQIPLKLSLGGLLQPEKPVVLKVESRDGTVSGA

Cc1ccn(-c2cc(Cl)ccc2[C@@H](Oc2ncnc3c(-c4ccc(C[C@H](N)C(=O)O)cc4)csc23)C(F)(F)F)n1.Cl [Compound 18i, (S)-2-amino-3-(4-(4-((R)-1-(4-chloro-2-(3-methyl-1H-pyrazol-1-yl)phenyl)-2,2,2-trifluoroethoxy)thieno[3,2-d]pyrimidin-7-yl)phenyl)propanoic acid hydrochloride]
Liver microsomal stability (rat), parent remained ([1]; after 30 min incubation, 1 µM): 99% parent remained after 30 min incubation | Liver microsomal stability, remained ([1]; after incubation for 30 min, species not given): 99% | Liver microsomal stability (human), parent remained [2]: 99% parent remained after 30 min incubation | inhibition at 10 µM (CYP2D6): 24.6% | inhibition at 10 µM (CYP3A4): 45.3% | AUC(0-inf) ([3]; male rats, iv, 5 mpk): 1220 ng·h/mL | AUC(0-t) ([3]; male rats, iv, 5 mpk): 1210 ng·h/mL | clearance ([3]; male rats, iv, 5 mpk): 68.2 mL/min/kg | half-life ([3]; male rats, iv, 5 mpk): 111 min | Vd ([3]; male rats, iv, 5 mpk, read-out: Vss): 2.16 L/kg | AUC ([3]; male, intravenous, rats, read-out: AUC (text, kind not stated)): 1200 ng·h/mL | Expression of lipogenic genes Fasn, Srebp1c and adipogenic transcription factors Pparg, Cebpa (3T3-L1 cells): decreased expression of key lipogenic genes
